{"source": "patent US20210205365A1", "about": "“Chimeric Growth Factor Receptors” (Instil Bio (UK) Ltd., priority 2018, published 2021)", "key": {"[1]": {"tested_on": "phospho-STAT5", "experiment": "Induction of pSTAT5 in CrGFR expressing T-cells", "assay_type": "cell-based, human", "settings": "CrGFR expressing T-cells from 4 donors treated for four hours", "protocol": "FIG. 15—Induction of pSTAT by chimeric recombinant growth factor receptors. Primary human T-cells were isolated and transduced with the indicated CrGFR. Cells were enriched for CrGFR expression using Miltenyi MACS technology and expanded via polyclonal stimulation. The enriched cells were stimulated for 4 h with either media alone (RPMI), IL2, IL12, Tpo or Eltrombopag (Elt) before methanol fixation and intracellular staining with antibodies towards phospho-STAT5.\nFinally, Applicants validated the signalling potential of the novel CrGFR by conducting phospho STAT analysis upon treatment of CrGFR expressing T-cells with media, cytokine or drug. To this end T-cells from 4 donors were transduced with either the wt TpoR, TpoR. CD40 or TpoR.IL2rγ, enriched for CrGFR expression using paramagnetic bead selection protocols and then expanded using polyclonal stimulation. The cells were treated for four hours with media alone (RPMI), IL-2, Tpo or Eltrombopag (Elt) before methanol fixation, permeabilization and analysis using pSTAT specific antibodies. STAT molecules are the key drivers of cell signalling upon cytokine activation of cells, pSTAT5 in particular is key to IL-2 activity."}, "[2]": {"tested_on": "primary human T-cells", "experiment": "Eltrombopag and IL-2 on CrGFR transduced primary human T-cells, up to 21 days", "assay_type": "cell-based", "settings": "after 21 days, x3 donors, Eltrombopag", "protocol": "(§1) FIGS. 6A-6B—Analysis of Eltrombopag and IL-2 on primary human T-cells from Donor 1. Primary human T-cells from donor 1 were transduced with the WT TpoR or variant CrGFR and incubated in the presence of IL2 or Eltrombopag. Cells were removed at time points up to 21 days and the proportion of cells expressing the receptor assessed using PE conjugated anti-CD110 antibodies and a MACSQuant analyser.\nas §1, with “FIGS. 7A-7B—Analysis” for “FIGS. 6A-6B—Analysis”, “Donor 2.” for “Donor 1.”, “donor 2” for “donor 1”\nas §1, with “FIGS. 8A-8B—Analysis” for “FIGS. 6A-6B—Analysis”, “Donor 3.” for “Donor 1.”, “donor 3” for “donor 1”\nFIGS. 9A-9B—Selection of optimal CrGFRs for next round of analysis. Flow cytometry plots showing expression of CrGFRs in ×3 donor primary human T-cells after 21 days incubation in Eltrombopag. The receptors TpoR.CD40, TpoR.IL2rγ, TpoR.ITAM1, TpoR.A60, TpoR.LMP1-cyto and TpoR.TpoR-cyto.LMP1-cyto were chosen for future comparison with the wt TpoR.\nPeripheral blood mononuclear cells were isolated from normal healthy donors before activation for 24 hours with T-cell activation and expansion beads (Invitrogen) according to the manufacturer's instructions before addition of lentiviral supernatants.\nFollowing expansion cells were washed excessively to remove any exogenous IL2 and plated into 96-well U-bottom plates. Cells were supplemented with IL2 (Proleukin) or Eltrombopag (Stratech Scientific, Suffolk, UK). At various time points thereafter cells were either stained with a 1:400 dilution of eFlor-450 fixable viability dye (eBioscience, UK) and counted directly from the wells using a MACSQuant Cytometer, or were stained with DRAQ7 viability dye plus phycoerythrin conjugated anti-CD110 antibodies (Miltenyi Biotec, UK) and analysed using a MACSQuant cytomter. Cell viability and/or transduction level was then analysed using MACSQuantify software (Miltenyi Biotec, UK).\nNext Applicants took these receptors and expressed them in primary human T-cells and exposed these cells to IL-2 or Eltrombopag. Three donor primary human T-cell populations were isolated from buffy coats and transduced with the indicated lentiviral constructs in the presence of CD3/CD28 Dynabeads. Following expansion the cells were incubated with IL-2 or Eltrombopag. Applicants saw an increase in expansion/survival of T-cells with some of the receptors in some of the donors. […] This narrowed Applicants' panel of receptors to analyse further to: TpoR.CD40, TpOR.IL2rγ, TpoR.ITAM1, TpOR.LMP1-cyt, and TpoR.TpoR-cyt-LMP1-cyt."}, "[3]": {"tested_on": "primary human T-cells", "experiment": "Eltrombopag and IL-2 on CrGFR sorted (CD110+) primary human T-cells, up to 7 days", "assay_type": "cell-based", "settings": "second donor (FIG. 12)", "protocol": "(§2) FIG. 10—Analysis of Eltrombopag and IL-2 on CrGFR sorted primary human T-cells from Donor 4. Primary human T-cells from donor 4 were transduced with the WT TpoR or variant CrGFR, and enriched for expression by Miltenyi MACS technology selected for and incubated in the presence of IL2 or Eltrombopag. Cells were removed at time points up to 7 days and the number of cells expressing the receptor assessed using PE conjugated anti-CD110 antibodies, DRAQ7 viability dye and a MACSQuant analyser.\nas §2, with “11—Analysis” for “10—Analysis”, “5.” for “4.”, “5” for “4”\nas §2, with “12—Analysis” for “10—Analysis”, “6.” for “4.”, “6” for “4”\nParamagnetic bead sorts were conducted as per the manufacturers' instructions using either anti-PE microbeads (Miltenyi Biotec or StemCell Technologies), or T-cell isolation beads (17951: StemCell Technologies).\nNext Applicants repeated the experiment but sorted the CrGFR+ cells using CD110+ selection by paramagnetic bead selection using the receptors identified from the first round of selections (FIGS. 10, 11 and 12). Applicants observed enhanced survival of T-cells engrafted with the majority of the CrGFR in all three donors. In particular Applicants saw expansion of WT-TpoR, TpOR.CD40, TpOR.IL2rγ and TpoR.LMP1-cyto cells in the second donor (FIG. 12) above that with media alone."}}}
{"molecule": "Tpo: thrombopoietin (Tpo), native ligand of TpoR", "values": [{"measurement": "induction of pSTAT5 by cytokine or drug", "setting": "[1]", "value": "showed induction of STAT5 activity"}]}
{"molecule": "TpoR.LMP1-cyt: SEQ ID NO: 12; TpoR EC and TM domain fused to LMP-1 cytoplasmic domain", "values": [{"measurement": "proportion of viable cells with a distinct population of CD110+ cells", "setting": "[2]", "value": "good proportion of viable cells with a distinct population of CD110+ cells"}, {"measurement": "expansion of CrGFR cells above that with media alone", "setting": "[3]", "value": "expansion"}]}
{"molecule": "TpoR.TpoR-cyt-LMP1-cyt: SEQ ID NO: 11; TpoR with TpoR cytoplasmic domain fused to LMP-1 cytoplasmic domain", "values": [{"measurement": "proportion of viable cells with a distinct population of CD110+ cells", "setting": "[2]", "value": "good proportion of viable cells with a distinct population of CD110+ cells"}]}
{"molecule": "TpoR.ITAM1: SEQ ID NO: 10; TpoR fused to ITAM1 cytoplasmic domain (protein, TpoR-ITAM1; MISC_FEATURE (1)..(491): TpoR Extracellular Domain; MISC_FEATURE (492)..(513): TpoR Transmembrane Domain; MISC_FEATURE (514)..(635): TpoR Cytoplasmic Domain; MISC_FEATURE (636)..(676): ITAM1 Cytoplasmic Domain) MPSWALFMVTSCLLLAPQNLAQVSSQDVSLLASDSEPLKCFSRTFEDLTCFWDEEEAAPSGTYQLLYAYPREKPRACPLSSQSMPHFGTRYVCQFPDQEEVRLFFPLHLWVKNVFLNQTRTQRVLFVDSVGLPAPPSIIKAMGGSQPGELQISWEEPAPEISDFLRYELRYGPRDPKNSTGPTVIQLIATETCCPALQRPHSASALDQSPCAQPTMPWQDGPKQTSPSREASALTAEGGSCLISGLQPGNSYWLQLRSEPDGISLGGSWGSWSLPVTVDLPGDAVALGLQCFTLDLKNVTCQWQQQDHASSQGFFYHSRARCCPRDRYPIWENCEEEEKTNPGLQTPQFSRCHFKSRNDSIIHILVEVTTAPGTVHSYLGSPFWIHQAVRLPTPNLHWREISSGHLELEWQHPSSWAAQETCYQLRYTGEGHQDWKVLEPPLGARGGTLELRPRSRYRLQLRARLNGPTYQGPWSSWSDPTRVETATETAWISLVTALHLVLGLSAVLGLLLLRWQFPAHYRRLRHALWPSLPDLHRVLGQYLRDTAALSPPKATVSDTCEEVEPSLLEILPKSSERTPLPLCSSQAQMDYRRLQPSCLGTMPLSVCPPMAESGSCCTTHIANHSYLPLSYWQQPRVKFSRSADAPAYQQGQNQLYNELNLGRREEYDVLDKRRGR", "values": [{"measurement": "proportion of viable cells with a distinct population of CD110+ cells", "setting": "[2]", "value": "good proportion of viable cells with a distinct population of CD110+ cells"}]}
{"molecule": "TpoR.Δ60: SEQ ID NO: 2; TpoR with C-terminal truncation of the cytoplasmic domain (protein, TpoR.delta60; MISC_FEATURE (1)..(491): TpoR Extracellular Domain; MISC_FEATURE (492)..(513): TpoR Transmembrane Domain; MISC_FEATURE (514)..(580): TpoR Cytoplasmic Domain with C-terminal Truncation) MPSWALFMVTSCLLLAPQNLAQVSSQDVSLLASDSEPLKCFSRTFEDLTCFWDEEEAAPSGTYQLLYAYPREKPRACPLSSQSMPHFGTRYVCQFPDQEEVRLFFPLHLWVKNVFLNQTRTQRVLFVDSVGLPAPPSIIKAMGGSQPGELQISWEEPAPEISDFLRYELRYGPRDPKNSTGPTVIQLIATETCCPALQRPHSASALDQSPCAQPTMPWQDGPKQTSPSREASALTAEGGSCLISGLQPGNSYWLQLRSEPDGISLGGSWGSWSLPVTVDLPGDAVALGLQCFTLDLKNVTCQWQQQDHASSQGFFYHSRARCCPRDRYPIWENCEEEEKTNPGLQTPQFSRCHFKSRNDSIIHILVEVTTAPGTVHSYLGSPFWIHQAVRLPTPNLHWREISSGHLELEWQHPSSWAAQETCYQLRYTGEGHQDWKVLEPPLGARGGTLELRPRSRYRLQLRARLNGPTYQGPWSSWSDPTRVETATETAWISLVTALHLVLGLSAVLGLLLLRWQFPAHYRRLRHALWPSLPDLHRVLGQYLRDTAALSPPKATVSDTCEEVEPSLLEILPKSSERTPL", "values": [{"measurement": "proportion of viable cells with a distinct population of CD110+ cells", "setting": "[2]", "value": "looked good"}]}
{"molecule": "IL-12: IL-12 as a control (protein, UniProt P29459 23-219; P29460 23-328, looked up) Interleukin-12 subunit alpha: RNLPVATPDPGMFPCLHHSQNLLRAVSNMLQKARQTLEFYPCTSEEIDHEDITKDKTSTVEACLPLELTKNESCLNSRETSFITNGSCLASRKTSFMMALCLSSIYEDLKMYQVEFKTMNAKLLMDPKRQIFLDQNMLAVIDELMQALNFNSETVPQKSSLEEPDFYKTKIKLCILLHAFRIRAVTIDRVMSYLNAS Interleukin-12 subunit beta: IWELKKDVYVVELDWYPDAPGEMVVLTCDTPEEDGITWTLDQSSEVLGSGKTLTIQVKEFGDAGQYTCHKGGEVLSHSLLLLHKKEDGIWSTDILKDQKEPKNKTFLRCEAKNYSGRFTCWWLTTISTDLTFSVKSSRGSSDPQGVTCGAATLSAERVRGDNKEYEYSVECQEDSACPAAEESLPIEVMVDAVHKLKYENYTSSFFIRDIIKPDPPKNLQLKPLKNSRQVEVSWEYPDTWSTPHSYFSLTFCVQVQGKSKREKKDRVFTDKTSATVICRKNASISVRAQDRYYSSSWSEWASVPCS", "values": [{"measurement": "induction of pSTAT5 by cytokine or drug", "setting": "[1]", "value": "unable to induce STAT5 activation"}]}
